Assay results taken from patent US20200061076A1, “METHODS OF TREATING LEUKODYSTROPHIES” (Ramot at Tel-Aviv University Ltd., priority 2017, published 2020).

Experiments:
Mut MEFs [1] = test: Cell survival assay, Crystal violet staining, Mut MEFs; format: cell-based, mouse; conditions: for Survival (%) ± SEM Mut MEFs: 24 hours, untreated cells set to 100%
Procedure: (§1) Cells were seeded on 96-wells plate at a density of 5000 cells per well. Astrocytes were seeded following coating with 0.001% PDL.

WT astrocytes = test: Cell survival assay, Crystal violet staining, WT astrocytes; format: cell-based, mouse; conditions: 24 hours, untreated cells set to 100%
Procedure: as §1

Mut astrocytes [2] = test: Cell survival assay, Crystal violet staining, Mut astrocytes; format: cell-based, mouse; conditions: 24 hours, untreated cells set to 100%
Procedure: as §1

Sig-1R = Sig-1R (Homo sapiens, UniProt Q99720); test: Competitive displacement binding assay with [3H]haloperidol (Eurofins); conditions: 10 μM compound
Procedure: Following, the direct binding of p8G5 to Sig-1R, was tested in-vitro by Eurofins labs (www(dot)cerep(dot)fr/cerep/users/pages/catalog/Affiche_CondExp_Test(dot)asp?test=889).

Mut MEFs [3] = test: mtDNA quantification (qPCR of mitochondrial 12S rRNA and nuclear 18S rRNA genes), MEFs; format: cell-based, mouse; conditions: 0.1 μM-1 μM, 6 hours incubation (FIG. 2)
Procedure: DNA extracted from WT and Mut MEFs that were treated or not for 6 hours with 0.1 μM, 1 μM or 10 μM of p8G5 (blue), Pre084 (known SIG-1R agonist, purple), pridopidine (known SIG-1R agonists, green) or NE-100 (known SIG-1R antagonist, yellow) was subjected to qPCR analysis of mitochondrial 12S rRNA and nuclear 18S rRNA genes.

Mut MEFs [4] = test: TMRE staining, flow cytometry; format: cell-based, mouse; conditions: 1 μM, 6 hours (FIGS. 5A-B)
Procedure: Mut MEFs were treated or untreated with the indicated concentrations of the indicated Sig-1R binders for 6 hours, stained by TMRE for 30 minutes and analyzed by flow cytometry. Shown are flow cytometry histograms and bar graphs representing % mean TMRE fluorescence intensity relative to non-treated WT cells of a representative experiment.
MEFs were seeded at a density of 4×10^4 cells per well in a 24-wells plate. 24 hours post-plating the cells were incubated with the tested compounds for additional 6 hours followed by staining with 200 nM Tetra-Methyl-Rhodamine-Ethyl esterperchlorate (TMRE) (Abcam) for 30 minutes at 37° C. Cells were removed by trypsinyzation, washed and resuspended in PBS. 5-10×10^3 cells were analyzed by Stratedigm S1000EXi cell sorter and FlowJo software (FLOWJO, LLC, Ashland, Oreg., USA).

Mut MEFs [5] = test: Oxygen consumption (Seahorse XF Cell Mito Stress Test), MEFs; format: cell-based, mouse; conditions: for basal and ATP-linked respiration rate per mitochondrial DNA content: 6 hours (FIGS. 8A-B)
Procedure: Mut MEFs were treated or not for 6 hours with the indicated concentrations of the indicated Sig-1R binders. Oxygen consumption was measured in a XF96 Extracellular Flux Analyzer using the Seahorse XF Cell Mito Stress Test Kit. The Basal respiration (FIG. 7A) and ATP-linked respiration (FIG. 7B) data were normalized to biomass as determined by Crystal Violet staining.
Mut MEFs were treated or not for 6 hours with the indicated concentrations of the indicated Sig-1R binders. Oxygen consumption was measured in a XF96 Extracellular Flux Analyzer using the Seahorse XF Cell Mito Stress Test Kit. The Basal respiration (FIG. 8A), ATP-linked respiration (FIG. 8B) and maximal respiration (FIG. 8C) data was normalized to mtDNA content as detailed in FIG. 2.
(§2) The data were normalized to cell number, obtained by Crystal Violet staining, or to mtDNA content.

Mut primary astrocytes [6] = test: Oxygen consumption (OCR), primary astrocytes; format: cell-based, mouse; conditions: 1 or 10 μm, 6 hours, normalized to cell number (FIGS. 17B-C)
Procedure: (§3) Shown is average relative quantity (RQ) of 2-6 independent experiments normalized to their untreated controls ±SEM. […] Values of ATP-linked respiration (FIG. 17B) and maximal respiration (FIG. 17C) were analyzed and normalized to cell number.
as §2

Mut primary astrocytes [7] = test: mtDNA quantification, primary astrocytes; format: cell-based, mouse; conditions: 1 or 10 μm, 6 hours (FIG. 17A)
Procedure: as §3

Mut astrocytes [8] = test: Survival under Tunicamycin-induced ER stress, Crystal Violet, astrocytes; format: cell-based, mouse; conditions: 20-50 μM, 50 ng/ml Tunicamycin last 22 hours (FIG. 19)
Procedure: WT and Mut astrocytes were treated or not for 24 hours with 20, 30 or 50 μM of the indicated Sig-1R binders in the presence of 50 ng/ml Tunicamycin (Tun) during the last 22 hours. Following, the cells were washed, fixated and stained with Crystal Violet (CV) followed by measurement of absorbance at 570 nm. Shown is % of CV staining relative to cells not treated with tunicamycin nor Sig-1R binder ±SEM of 3 independent experiments, *p<0.05.
as §1

Mut MEFs [9] = test: Survival under Tunicamycin-induced ER stress, Crystal Violet, MEFs; conditions: 20 μM, 24 hours, Tunicamycin during the last 22 hours (FIGS. 9, 10 and 18)
Procedure: Mut MEFs were treated or not for 24 hours with the indicated concentrations of the indicated Sig-1R binders in the presence of 0.1 μg/ml Tunicamycin (Tun) during the last 22 hours. Following, the cells were washed, fixated and stained with Crystal Violet (CV) followed by measurement of absorbance at 570 nm. Shown is average % of CV staining relative to cells not treated with tunicamycin nor Sig-1R binder ±SEM of 3 independent experiments. *p<0.03.
Following, the cells were washed, fixated and stained with Crystal Violet and absorbance at 570 nm was measured. Data is presented relative to cells of the corresponding genotype not treated with p8G5 nor Tunicamycin. Shown is average % of CV staining ±SEM of 3 independent experiments.
Mut MEFs were treated or not for 24 hours with 10, 20 or 30 μM of the indicated Sig-1R binders in the presence of 50 ng/ml Tunicamycin (Tun) during the last 22 hours. Following, the cells were washed, fixated and stained with Crystal Violet (CV) followed by measurement of absorbance at 570 nm. Shown is % of CV staining relative to cells not treated with tunicamycin nor Sig-1R binder ±SEM of 3 independent experiments, *p<0.05.
Mut MEFs were incubated or not with the indicated concentrations of the indicated compounds for 2 hours followed by addition of 50 ng/ml Tunicamycin (Tun) for additional 22 hours, stained with Crystal Violet followed by measurement of absorbance at 570 nm. Shown is average normalized to Tun-treated cells without any compound ±SEM of 3 independent experiments. * not significant; ** p<0.02; *** all values p<0.04.

Sequence of Sig-1R (Q99720 whole entry): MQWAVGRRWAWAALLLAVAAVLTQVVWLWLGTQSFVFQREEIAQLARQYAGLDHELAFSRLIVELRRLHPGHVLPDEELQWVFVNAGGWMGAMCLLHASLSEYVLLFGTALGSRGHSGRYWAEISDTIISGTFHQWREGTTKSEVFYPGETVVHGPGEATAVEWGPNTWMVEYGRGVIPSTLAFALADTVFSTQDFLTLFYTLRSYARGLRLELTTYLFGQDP

Cc1cccc(OCCCCCN2CCOCC2)c1 [H8 (p8G5), 4-[5-(3-methylphenoxy)pentyl]morpholine]
Survival (%) ± SEM Mut MEFs (Mut MEFs [1]; 0.1 μM): 104 ± 4.6% | Survival (%) ± SEM Mut MEFs (Mut MEFs [1]; 1 μM): 102 ± 3.3% | Survival (%) ± SEM Mut MEFs (Mut MEFs [1]; 10 μM): 99 ± 2.6% | Survival (%) ± SEM Mut MEFs (Mut MEFs [1]; 30 μM): 105 ± 13% | effect on survival of Mut cells (Mut MEFs [1]; as high as 30 μM (FIG. 4, Table 3)): did not have any negative effect on the survival | Survival (%) ± SEM WT astrocytes (WT astrocytes; 1 μM): 132 ± 10.7% | Survival (%) ± SEM WT astrocytes (WT astrocytes; 10 μM): 102 ± 3.8% | Survival (%) ± SEM WT astrocytes (WT astrocytes; 30 μM): 99 ± 3.2% | Survival (%) ± SEM Mut astrocytes (Mut astrocytes [2]; 1 μM): 108 ± 0.6% | Survival (%) ± SEM Mut astrocytes (Mut astrocytes [2]; 10 μM): 93 ± 2.1% | Survival (%) ± SEM Mut astrocytes (Mut astrocytes [2]; 30 μM): 92 ± 1.6% | inhibition at 10 µM (Sig-1R): 92% | mitochondrial content in Mut MEFs (Mut MEFs [3]): lowered the abnormal high mitochondrial content | TMRE staining (mitochondrial membrane potential) (Mut MEFs [4]): increased TMRE staining to a level above that of untreated WT cells | maximal respiration rate per mitochondrial content (Mut MEFs [5]; 1 μM, 6 hours (FIG. 8C)): increased the maximal respiration capacity per mitochondria to the level of untreated WT cells | basal and ATP-linked respiration rate per mitochondrial DNA content (Mut MEFs [5]; 1 μM): brought both parameters to WT levels | basal and ATP-linked respiration rate per mitochondrial DNA content (Mut MEFs [5]): statistically significant increase | basal respiration and ATP-linked respiration per cell (OCR) (Mut MEFs [5]; 6 hours, normalized to biomass (FIGS. 7A-B)): no effect | ATP-linked and maximal respiration in mutant astrocytes (Mut primary astrocytes [6]): increased both ATP-linked and maximal respiration | mitochondrial content per cell in astrocytes (Mut primary astrocytes [7]): no effect on mitochondrial content per cell | survival rate of Mut astrocytes under ER-stress conditions (Mut astrocytes [8]): increased the survival rate | survival of Mut MEFs under Tunicamycin ER-stress (Mut MEFs [9]): attenuated the apoptotic effect
